Values after ≈ are worked out from the molar mass of the structure shown.
What was measured:
[1] = Confirmation of insolubilized substance C (HPLC of supernatant after 101-fold dilution); assay type: physicochemical
Text: A propolis mass was disrupted, injected into 3 columns and fed with 50 v/v % aqueous ethanol solution by counter-current extraction method to dissolve and extract the effective ingredients of propolis. The extract was filtered to obtain a liquid propolis extract containing about 20 w/w % dry solid in a yield of about 30% of the material propolis, d.s.b.
The pH of the sample was 5.0 when measured with a pH-meter. The sample was placed in a beaker and diluted with water by 101-fold into a dilute aqueous ethanol solution in the form of a white suspension which was then allowed to stand at 25° C. for an hour under gentle stirring conditions and centrifuged to obtain a supernatant. High-performance liquid chromatography (HPLC) was used to quantify the concentration of substance C in the supernatant according to the method as described in Bioscience, Biotechnology, and Biochemistry, Vol. 58, No. 5, pp. 945-946 (1994). As a control, the sample was diluted by 101-fold with ethanol in place of water.

[2] = Water-solubility of substance C in propolis extract (supernatant concentration); assay type: physicochemical
Method: The sample in Experiment 1 was mixed with an equal amount of 50 v/v % aqueous ethanol solution either with or without an adequate amount of sodium hydroxide, and the mixture with a pH 5.0 was adjusted to a pH of 5.2, 5.5, 5.8, 6.0, 6.2, 6.4, 6.8, 7.0, 7.2, 7.5 or 8.1 before prepared into an about 10 w/w % liquid propolis extract, d.s.b., as samples used in the following experiments.
After one-month standing at 25° C., the samples were tested similarly as in Experiments 2-(1) to 2-(4) and subjected to a sensory evaluation using 12 panels.

Concentration of substance C in water dilution relative to control diluted with ethanol ([1]; 101-fold dilution): 0.06% | solubility kinetic ([1]; dilute aqueous ethanol, organic solvent or mixture, 25° C., pH about 5.0 extract, 10 w/w % d.s.b. in 50 v/v % aqueous ethanol, diluted with water by about 100 folds, read-out: Concentration in which substance C dissolves in dilute aqueous ethanol solution): 0.03 µg/mL (≈ 0.0999 µM) | Concentration of substance C in supernatant of dilution diluted with ethanol (Control) ([1]; diluted with ethanol by 101-fold, control): 46.7 ppm | Solubilization of substance C on dilution with water (in words) ([1]; dilution with water into dilute aqueous ethanol solution): insolubilized most of substance C | Amount of substance C of the sample contained in sediments collected by centrifugation ([1]; sediments dissolved in ethanol, after dilution with water): at least 99% | improvement of solubility of substance C in dilute aqueous ethanol solution ([2]; pH increased from about 5.0 to 5.5-7.0): 15-100 folds
SMILES: CC(C)=CCc1cc(C=CC(=O)O)cc(CC=C(C)C)c1O [substance C, 3-[4-hydroxy-3,5-bis(3-methyl-2-butenyl)phenyl]-2-propenoic acid]
Water-solubility of substance C (in words) ([2]; pH dependence): greatly increased when adjusted to a pH of over 5.5
